Measurements published in patent US20240130368A1, “HERBICIDAL COMPOSITION” (Nippon Soda Co., Ltd., priority 2021, published 2024).
Read-outs that look alike come from different tables or passages of the source.

Test system: Ambrosia artemisiifolia
Assay: Test Example 1: seeds on filter paper moistened with chemical solution, herbicidal effect visually evaluated
Assay type: in vivo
Settings: visually evaluated 6 days after treatment
Description: As the compound (1), 1-methoxy-3-methyl-6-(1,1-dioxido-8-(trifluoromethyl)thiochroman-5-yl)-7-oxa-3,4-diazabicyclo[4.1.0]hept-4-en-2-one (Compound (I-3)) was used.
The compound (I) or compound (II) was prepared into a 5% emulsion using DMF (containing 1.5% Tween) and diluted with water to a prescribed dosage concentration. Commercially available preparations were dissolved in water and adjusted to a prescribed dosage concentration.
Seeds were soaked in 0.6% sodium hypochlorite for a predetermined time for surface sterilization and washed with water for use (seed disinfection). Seeds of Ambrosia artemisiifolia were used for the test.
Filter paper was placed on a cup (diameter: 10 cm, height: 4 cm) with a lid and moistened with 8 ml of chemical solution, and seeds were sown thereon, and after covering with a lid, grown in a constant temperature room.
The herbicidal effects were visually evaluated, 6 days after the treatment, as the herbicidal effect (%), by comparing with a state of an untreated group using a total of 21 scores of withering index from 0 to 20 (0: mortality rate equivalent to that of the untreated group, 20: mortality rate of 100%).
In addition, the expected values of the herbicidal effects were calculated from the herbicidal effects in a case where the compound (I) alone was applied and the herbicidal effects in a case where the compound (II) alone was applied by using the Colby's formula (Colby, S. R., Calculating synergistic and antagonistic responses of herbicide combinations, Weeds, 15, pp. 20-22 (1967)).
M indicates an herbicidal effect (%) in the application of the compound (I) alone, N indicates an herbicidal effect (%) in the application of the compound (II) alone, and E indicates an expected value (%) of the herbicidal effect in the combined application of the compound (T) and the compound (TT). When the actual measured value (%) of the herbicidal effect in the combined application of the compound (I) and the compound (II) is greater than the expected value E, it can be regarded that the combined application of the compound (I) and the compound (II) has a synergistic effect.

[1] = Ambrosia artemisiifolia, 144 h, compound applied alone, amount of active ingredient 3.1 ppm, read-out: Herbicidal effect (%)
[2] = applied alone, amount of active ingredient 0.8 ppm
[3] = Ambrosia artemisiifolia, 144 h, compound applied alone, amount of active ingredient 0.8 ppm, read-out: Herbicidal effect (%)
[4] = Ambrosia artemisiifolia, 144 h, applied alone, amount of active ingredient 50 ppm, read-out: Herbicidal effect (%)
[5] = Ambrosia artemisiifolia, 144 h, read-out: Herbicidal effect (%), applied alone, amount of active ingredient 12.5 ppm
[6] = Ambrosia artemisiifolia, 144 h, applied alone, amount of active ingredient 0.2 ppm, read-out: Herbicidal effect (%)
[7] = compound applied alone, amount of active ingredient 12.5 ppm
[8] = Ambrosia artemisiifolia, 144 h, applied alone, amount of active ingredient 0.8 ppm, read-out: Herbicidal effect (%)
[9] = Ambrosia artemisiifolia, 144 h, compound applied alone, amount of active ingredient 0.2 ppm, read-out: Herbicidal effect (%)
[10] = Ambrosia artemisiifolia, 144 h, applied alone, amount of active ingredient 12.5 ppm, read-out: Herbicidal effect (%)
[11] = Ambrosia artemisiifolia, 144 h, compound applied alone, amount of active ingredient 0.012 ppm
[12] = compound applied alone, amount of active ingredient 0.2 ppm

2,4-D amine
Herbicidal effect (%) (applied alone, amount of active ingredient 0.05 ppm): 20%

Cc1ccccc1CO[C@@H]1C[C@@]2(C(C)C)CC[C@]1(C)O2 (racemic) [Cinmethylin]
pest or weed control at 3.1 ppm [1]: 50%

CCCCC(CC)COC(=O)COc1ccc(Cl)cc1Cl (stereo not drawn) [2,4-D 2-ethylhexyl ester]
Herbicidal effect (%) [2]: 50%

Nc1c([N+](=O)[O-])ccc(Oc2ccccc2)c1Cl [Aclonifen]
pest or weed control at 50 ppm (Ambrosia artemisiifolia, 144 h, compound applied alone, amount of active ingredient 50 ppm, read-out: Herbicidal effect (%)): 20%

CCc1cccc(CC)c1N(COC)C(=O)CCl [Alachlor]
pest or weed control at 0.8 ppm [3]: 20%

CC(C)c1nn(C(=O)NC(C)(C)C)c(=O)n1N [Amicarbazone]
Herbicidal effect (%) (applied alone, amount of active ingredient 50 ppm): 0%

Nc1nc[nH]n1 [Amitrole]
pest or weed control at 3.1 ppm [1]: 20%

COC(=O)NS(=O)(=O)c1ccc(N)cc1 [Asulam]
pest or weed control at 3.1 ppm [1]: 20%

CC(C)N1C(=O)c2ccccc2NS1(=O)=O [Bentazon]
pest or weed control at 200 ppm (Ambrosia artemisiifolia, 144 h, applied alone, amount of active ingredient 200 ppm): 20%

N#Cc1cc(Br)c(O)c(Br)c1 [Bromoxynil]
pest or weed control at 3.1 ppm (Ambrosia artemisiifolia, 144 h, applied alone, amount of active ingredient 3.1 ppm, read-out: Herbicidal effect (%)): 0%

CCOC(=O)C(Cl)Cc1cc(-n2nc(C)n(C(F)F)c2=O)c(F)cc1Cl (stereo not drawn) [Carfentrazone-ethyl]
pest or weed control at 0.8 ppm (Ambrosia artemisiifolia, 144 h, read-out: Herbicidal effect (%), applied alone, amount of active ingredient 0.8 ppm): 50%

Cc1ccc(NC(=O)N(C)C)cc1Cl [Chlorotoluron]
pest or weed control at 50 ppm [4]: 40%

CCSC(C)CC1CC(=O)C(/C(CC)=N/OC/C=C/Cl)=C(O)C1 (stereo not drawn) [Clethodim]
pest or weed control at 12.5 ppm [5]: 0%

CC1(C)CON(Cc2ccccc2Cl)C1=O [Clomazone]
pest or weed control at 0.2 ppm [6]: 10%

Cc1cccc(C2CC2)c1Oc1nnc(Cl)cc1OC(=O)N1CCOCC1 [Cyclopyrimorate]
Herbicidal effect (%) [7]: 40%

COc1c(Cl)ccc(Cl)c1C(=O)O [Dicamba]
pest or weed control at 0.8 ppm [8]: 30%

O=C(Nc1ccc(F)cc1F)c1cccnc1Oc1cccc(C(F)(F)F)c1 [Diflufenican]
pest or weed control at 0.2 ppm [9]: 10%

C/C(=N\NC(=O)Nc1cc(F)cc(F)c1)c1ncccc1C(=O)[O-].[Na+] [Diflufenzopyr-sodium]
Herbicidal effect (%) [7]: 20%

COC[C@H](C)N(C(=O)CCl)c1c(C)csc1C [Dimethenamid-P]
Herbicidal effect (%) (compound applied alone, amount of active ingredient 0.8 ppm): 30%

c1cc[n+]2c(c1)-c1cccc[n+]1CC2 [Diquat]
pest or weed control at 0.2 ppm (Ambrosia artemisiifolia, 144 h, read-out: Herbicidal effect (%), compound applied alone, amount of active ingredient 0.2 ppm): 30%

CCOC(=O)COc1ncccc1Oc1cc(-n2c(=O)cc(C(F)(F)F)n(C)c2=O)c(F)cc1Cl [Epyrifenacil]
Herbicidal effect (%) (compound applied alone, amount of active ingredient 0.0125 ppm): 80%

Cc1ccn2nc(S(=O)(=O)Nc3c(F)cccc3F)nc2n1 [Flumetsulam]
pest or weed control at 12.5 ppm [10]: 40%

C#CCN1C(=O)COc2cc(F)c(N3C(=O)C4=C(CCCC4)C3=O)cc21 [Flumioxazin]
pest or weed control at 0.05 ppm (Ambrosia artemisiifolia, 144 h, applied alone, amount of active ingredient 0.05 ppm, read-out: Herbicidal effect (%)): 80%

NC(=O)c1nc(-c2ccccc2)n(-c2ccc(Cl)c(COCC(F)(F)C(F)(F)F)c2)n1 [Flupoxam]
pest or weed control at 0.012 ppm [11]: 65%

Nc1c(Cl)c(F)nc(OCC(=O)O)c1Cl [Fluroxypyr]
pest or weed control at 0.8 ppm [8]: 40%

COc1cc(OC)nc(NC(=O)NS(=O)(=O)c2cc(NC=O)ccc2C(=O)N(C)C)n1 [Foramsulfuron]
pest or weed control at 0.8 ppm [8]: 65%

CP(=O)(O)CCC(N)C(=O)O (stereo not drawn) [Glufosinate-ammonium]
pest or weed control at 12.5 ppm [5]: 20%

O=C(O)CNCP(=O)(O)O [Glyphosate]
pest or weed control at 12.5 ppm [5]: 20%

COC(=O)c1nc(-c2ccc(Cl)c(OC)c2F)cc(N)c1Cl [Halauxifen-methyl]
Herbicidal effect (%) (compound applied alone, amount of active ingredient 0.012 ppm): 70%

COC(=O)c1c(Cl)nn(C)c1S(=O)(=O)NC(=O)Nc1nc(OC)cc(OC)n1 [Halosulfuron-methyl]
pest or weed control at 0.05 ppm (Ambrosia artemisiifolia, 144 h, read-out: Herbicidal effect (%), compound applied alone, amount of active ingredient 0.05 ppm): 30%

COC(=O)C(C)Oc1ccc(Oc2ncc(C(F)(F)F)cc2Cl)cc1 (stereo not drawn) [Haloxyfop-methyl]
pest or weed control at 12.5 ppm [5]: 10%

CN(C)c1nc(=O)n(C2CCCCC2)c(=O)n1C [Hexazinone]
pest or weed control at 3.1 ppm [1]: 10%

CCC(C)(CC)c1cc(NC(=O)c2c(OC)cccc2OC)on1 [Isoxaben]
pest or weed control at 0.2 ppm [9]: 75%

CS(=O)(=O)c1cc(C(F)(F)F)ccc1C(=O)c1cnoc1C1CC1 [Isoxaflutole]
pest or weed control at 0.0125 ppm (Ambrosia artemisiifolia, 144 h, compound applied alone, amount of active ingredient 0.0125 ppm): 40%

CON(C)C(=O)Nc1ccc(Cl)c(Cl)c1 [Linuron]
pest or weed control at 12.5 ppm (Ambrosia artemisiifolia, 144 h, compound applied alone, amount of active ingredient 12.5 ppm, read-out: Herbicidal effect (%)): 10%

Cc1cc(Cl)ccc1OCC(=O)O [MCPA]
Herbicidal effect (%) (applied alone, amount of active ingredient 0.2 ppm): 30%

CS(=O)(=O)c1ccc(C(=O)C2C(=O)CCCC2=O)c([N+](=O)[O-])c1 [Mesotrione]
pest or weed control at 0.2 ppm [9]: 50%

CCc1cccc(C)c1N(C(=O)CCl)C(C)COC (stereo not drawn) [Metolachlor]
pest or weed control at 0.8 ppm [3]: 10%

CSc1nnc(C(C)(C)C)c(=O)n1N [Metribuzin]
pest or weed control at 50 ppm [4]: 0%

COc1cc(OC)nc(NC(=O)NS(=O)(=O)c2ncccc2C(=O)N(C)C)n1 [Nicosulfuron]
pest or weed control at 0.8 ppm [3]: 60%

CCC(CC)Nc1c([N+](=O)[O-])cc(C)c(C)c1[N+](=O)[O-] [Pendimethalin]
pest or weed control at 0.8 ppm [8]: 20%

Nc1c(Cl)c(Cl)nc(C(=O)O)c1Cl [Picloram]
pest or weed control at 0.8 ppm [8]: 70%

O=C(Nc1ccc(F)cc1)c1cccc(Oc2cccc(C(F)(F)F)c2)n1 [Picolinafen]
Herbicidal effect (%) (applied alone, amount of active ingredient 3.1 ppm): 30%

CCCN(CCC)C(=O)SCc1ccccc1 [Prosulfocarb]
pest or weed control at 0.8 ppm [8]: 20%

FC(F)c1cc(-c2c(Cl)cccc2Oc2ncc(Cl)cn2)on1 [Rimisoxafen]
Herbicidal effect (%) [12]: 25%

CCS(=O)(=O)c1cccnc1S(=O)(=O)NC(=O)Nc1nc(OC)cc(OC)n1 [Rimsulfuron]
pest or weed control at 0.2 ppm [6]: 20%

CC(C)N(C)S(=O)(=O)NC(=O)c1cc(-n2c(=O)cc(C(F)(F)F)n(C)c2=O)c(F)cc1Cl [Saflufenacil]
pest or weed control at 0.0125 ppm (Ambrosia artemisiifolia, 144 h, applied alone, amount of active ingredient 0.0125 ppm): 60%

CCC/C(=N\OCC)C1=C(O)CC(CC(C)SCC)CC1=O (stereo not drawn) [Sethoxydim]
pest or weed control at 0.8 ppm (Ambrosia artemisiifolia, 144 h, read-out: Herbicidal effect (%), compound applied alone, amount of active ingredient 0.8 ppm): 0%

CCNc1nc(Cl)nc(NCC)n1 [Simazine]
pest or weed control at 50 ppm [4]: 30%

Cc1nn(-c2cc(NS(C)(=O)=O)c(Cl)cc2Cl)c(=O)n1C(F)F [Sulfentrazone]
pest or weed control at 0.012 ppm [11]: 0%

CNC(=O)N(C)c1nnc(C(C)(C)C)s1 [Tebuthiuron]
pest or weed control at 50 ppm (Ambrosia artemisiifolia, 144 h, read-out: Herbicidal effect (%), compound applied alone, amount of active ingredient 50 ppm): 20%

CC/C(=N\OC/C=C/Cl)C1=C(O)CC(C2CCOCC2)CC1=O (stereo not drawn) [Tepraloxydim]
pest or weed control at 3.1 ppm (Ambrosia artemisiifolia, 144 h, read-out: Herbicidal effect (%), compound applied alone, amount of active ingredient 3.1 ppm): 10%

CCNc1nc(Cl)nc(NC(C)(C)C)n1 [Terbuthylazine]
pest or weed control at 50 ppm [4]: 0%

CN1C[C@H](c2cccc(C(F)(F)F)c2)[C@@H](C(=O)Nc2ccccc2F)C1=O [Tetflupyrolimet]
Herbicidal effect (%) (compound applied alone, amount of active ingredient 3.1 ppm): 70%

COC(=O)c1csc(C)c1S(=O)(=O)NC(=O)n1nc(OC)n(C)c1=O [Thiencarbazone-methyl]
Herbicidal effect (%) [2]: 30%

Cc1c(C(=O)c2cnn(C)c2O)ccc(S(C)(=O)=O)c1C1=NOCC1 [Topramezone]
Herbicidal effect (%) [12]: 40%

CC(C)N(C(=O)SCC(Cl)=C(Cl)Cl)C(C)C [Tri-allate]
pest or weed control at 12.5 ppm [10]: 20%
